The target of data set [1] is T1, human Factor XIa (Homo sapiens, UniProt P03951).
T1 construct: Enzyme: Factor XIa; 0.25 μM in 50% glycerol (20 μg/mL)
Description: Factor XIa enzyme inhibition assay (IC50, purified enzyme). In kind it is biochemical. The note with it: purified enzyme 0.25 nM, substrate 50 μM; read-out: Potency hFXIa IC50. Summed up: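 Fluorogenic Glp-Pro-Arg-AMC cleavage, 50 μM substrate, 0.25 nM enzyme, in 20 mM Hepes pH 7.4, 150 mM NaCl, 0.02% Tween 20. Serial two-fold compound dilutions from starting concentrations of 20, 2 and 0.2 μM. Read every minute for 30 min at 30° C; IC50 from a four-parameter fit of dose-response.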

In data set [2] the target is T2, Factor Xa (Homo sapiens, UniProt P00742).
T2 construct: Factor Xa; 0.2 μM in 50% glycerol (9.2 μg/mL)
T2 sequence (P00742 235-488 limits assumed): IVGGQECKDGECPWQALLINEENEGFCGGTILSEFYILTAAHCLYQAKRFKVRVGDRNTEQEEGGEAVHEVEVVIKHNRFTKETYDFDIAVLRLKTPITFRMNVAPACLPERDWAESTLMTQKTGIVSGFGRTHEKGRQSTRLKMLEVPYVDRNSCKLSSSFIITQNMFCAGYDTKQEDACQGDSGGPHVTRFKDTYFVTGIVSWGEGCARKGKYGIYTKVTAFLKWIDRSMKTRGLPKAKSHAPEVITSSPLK
T2 sequence (P00742 41-179 partner limits assumed): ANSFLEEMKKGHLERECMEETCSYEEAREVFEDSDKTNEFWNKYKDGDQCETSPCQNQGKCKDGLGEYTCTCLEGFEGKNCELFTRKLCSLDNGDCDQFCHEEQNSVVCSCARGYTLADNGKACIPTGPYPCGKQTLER
Description: Dose response assay for protease inhibitors: Factor Xa (FXIa fold selectivity). The note with it: fold selectivity for FXIa over Factor Xa. It counts as biochemical. The method, then:
(§1) • Assay buffer: 20 mM Hepes, pH 7.4; 150 mM NaCl; 0.02% Tween 20 • Compounds: 10 mM stocks in DMSO • Substrate: 20 mM Glp-Pro-Arg-AMC, 25 mg/2.3 mL H2O (store at +4° C.) [Factor XIa, thrombin, and trypsin] • 20 mM Pro-Phe-Arg-AMC (Bachem I-1295), 25 mg/2.2 mL H2O (store at +4° C.) [Factor Xa] • Enzyme: Factor XIa; 0.25 μM in 50% glycerol (20 μg/mL) • Trypsin; 0.2 μM in 50% glycerol (4.8 μg/mL) • Thrombin; 0.2 μM in 50% glycerol (7.34 μg/mL) • Factor Xa; 0.2 μM in 50% glycerol (9.2 μg/mL) • These stocks are aliquoted ([…]) and stored at −20° C. Methods: • 1. Dilute the substrate to 100 μM in assay buffer (30 μL/6 mL). The enzyme is diluted to 0.5 nM just prior to use (12 μL/6 mL for Factor XIa; 15 μL/6 mL for all of the rest.) • 2. Pipette 50 μL of substrate into each well of the 96 well (12×8) microtiter plate. (Column 1 is used as the 100% activity control and receives no compound, and Column 12 is the blank and receives no enzyme.) Add an additional 46 μL to column 2. • 3. Pipette 4 μL of each compound into the appropriate well in column 2 of the plate (unknowns assayed in triplicate, standard assayed in duplicate). The final compound concentration will be 1/50th of the stock. • 4. Serially two-fold dilute the compound by mixing the sample in column 2, removing 50 μL to the next well (column 3), mix and remove to column 4, etc. until column 11. After mixing column 11, remove 50 μL and discard. • 5. Pipette 50 μL of buffer into column 12. Initiate the reaction by adding 50 μL of enzyme solution to each well of columns 1-11 as rapidly as possible. • 6. Read the plate in a spectrophotometer (SpectraMax) at 30° C., wherein each well is measured every 60 s for 30 min. For Factor Xa assays, each well is measured every 1 min for a total of 60 min. • 7. For Factor XIa assays, the compounds are assayed, in duplicate, at 3 different starting concentrations, 20, 2, and 0.2 μM; 1:10, 1:100, and 1:1000 dil'n of 10 mM stock. All data sets are combined for graphing and data fitting. • 8. Data can be used both for estimation of IC50 and for estimation of Kon.

Data set [3] concerns the target T3, Thrombin (Homo sapiens, UniProt P00734).
T3 construct: Thrombin; 0.2 μM in 50% glycerol (7.34 μg/mL)
The data set can be described thus: Dose response assay for protease inhibitors: thrombin (FXIa fold selectivity). It counts as biochemical. The settings on record: fold selectivity for FXIa over thrombin. The method, then: as §1

Data set [4] deals with Trypsin. The data set can be described thus: Dose response assay for protease inhibitors: trypsin (FXIa fold selectivity). The settings on record: fold selectivity for FXIa over trypsin. In kind it is biochemical. Here is the method:
as §1

Data set [5] is described as follows: β-Lactam stability in rat plasma. It counts as in vitro ADME. The note with it: normal rat plasma, room temperature; read-out: Rat Plasma Stability (T1/2; min). Summed up:
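Compounds incubated in normal rat plasma at room temperature, sampled into acetonitrile from 2 to 480 min. Supernatants analysed by HPLC-MS on C18, extracted ion chromatograms of parent and parent+18 (H2O adduct) integrated; T½ = ln(2)/k from single-phase exponential decay fit.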

Ten compounds from patent US11198673B2, “Therapeutic compounds and compositions” (eXIthera Pharmaceuticals, Inc., priority 2014, dated 2021) can be followed below.

The term IC50 denotes the concentration that gives 50% inhibition.

T1 sequence (P03951 388-625 limits assumed): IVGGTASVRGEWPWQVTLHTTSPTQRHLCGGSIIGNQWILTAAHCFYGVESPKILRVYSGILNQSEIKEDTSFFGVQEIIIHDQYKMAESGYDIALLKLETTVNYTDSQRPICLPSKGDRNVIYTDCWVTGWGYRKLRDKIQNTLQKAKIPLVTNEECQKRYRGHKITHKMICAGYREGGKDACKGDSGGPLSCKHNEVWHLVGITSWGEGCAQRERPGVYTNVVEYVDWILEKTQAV
T1 sequence (P03951 19-387 partner limits assumed): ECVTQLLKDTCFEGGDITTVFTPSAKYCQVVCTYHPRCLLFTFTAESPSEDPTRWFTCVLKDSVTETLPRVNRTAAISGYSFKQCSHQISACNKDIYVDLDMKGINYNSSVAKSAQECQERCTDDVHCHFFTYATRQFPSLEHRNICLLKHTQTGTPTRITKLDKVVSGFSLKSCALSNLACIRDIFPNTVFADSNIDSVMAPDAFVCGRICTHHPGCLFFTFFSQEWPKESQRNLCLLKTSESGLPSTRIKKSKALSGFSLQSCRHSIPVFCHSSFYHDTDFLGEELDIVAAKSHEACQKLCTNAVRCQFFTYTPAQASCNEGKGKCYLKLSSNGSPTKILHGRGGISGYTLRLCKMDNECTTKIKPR

With `Nc1cc(C[C@H]2C(=O)N(C(=O)NCc3ccccc3)[C@@H]2C(=O)O)ccn1` [Example 48], in data set [1], the concentration for half-maximal inhibition (IC50) was 100 to 1000 nM. Further, the “FXIa Fold Selectivity FXa” value in data set [2] is on record as “G (“G” indicates 1-500)”. The “FXIa Fold Selectivity Thrombin” value in data set [3] was “G (“G” indicates 1-500)”. Further, the “FXIa Fold Selectivity Trypsin” value in data set [4] is listed as “G (“G” indicates 1-500)”. Besides, in data set [5], the half-life was over 1.67 h.

For the compound `C[C@@H](NC(=O)N1C(=O)[C@H](Cc2ccnc(N)c2)[C@H]1C(=O)O)c1cccc(OC(F)(F)F)c1` [Example 49], the IC50 in data set [1] was under 10 nM. In addition, in data set [2], the “FXIa Fold Selectivity FXa” value is recorded as “H (“H” indicates 500-1000)”. In data set [3], the “FXIa Fold Selectivity Thrombin” value is “I (“I” indicates >1000)”. In addition, the “FXIa Fold Selectivity Trypsin” value in data set [4] was “G (“G” indicates 1-500)”. In addition, the half-life in data set [5] was over 1.67 h.

With `CCCC(CCC)NC(=O)N1C(=O)[C@H](Cc2ccnc(N)c2)[C@H]1C(=O)O` [Example 52], the IC50 in data set [1] lay in the range of 10 to 100 nM. The “FXIa Fold Selectivity FXa” value in data set [2] was “H (“H” indicates 500-1000)”. Further, the “FXIa Fold Selectivity Thrombin” value in data set [3] is reported as “I (“I” indicates >1000)”. Further, in data set [4], the “FXIa Fold Selectivity Trypsin” value is “G (“G” indicates 1-500)”. Further, in data set [5], the half-life is over 1.67 h.

`CON=C[C@@H]1[C@@H](Cc2ccnc(N)c2)C(=O)N1C(=O)N[C@H](C)c1ccccc1` [Example 53]: the IC50 in data set [1] fell in the range of 10 to 100 nM. For the same compound, in data set [2], the “FXIa Fold Selectivity FXa” value is reported as “G (“G” indicates 1-500)”. For the same compound, the “FXIa Fold Selectivity Thrombin” value in data set [3] is reported as “G (“G” indicates 1-500)”. The “FXIa Fold Selectivity Trypsin” value in data set [4] is on record as “G (“G” indicates 1-500)”. For the same compound, the half-life in data set [5] is under 1.67 h.

In the case of `CNC(=O)N1C(=O)[C@H](Cc2ccnc(N)c2)[C@H]1C(=O)O` [Example 55], the concentration for half-maximal inhibition (IC50) in data set [1] is over 1000 nM. The “FXIa Fold Selectivity FXa” value in data set [2] is recorded as “G (“G” indicates 1-500)”. Further, the “FXIa Fold Selectivity Thrombin” value in data set [3] is on record as “G (“G” indicates 1-500)”. For the same compound, the “FXIa Fold Selectivity Trypsin” value in data set [4] is listed as “G (“G” indicates 1-500)”. Moreover, the half-life in data set [5] was over 1.67 h.

On to `C[C@@H](NC(=O)N1C(=O)[C@H](Cc2ccnc(N)c2)[C@H]1C(=O)O)c1ccc(F)c(F)c1` [Example 68], for which, in data set [1], the 50% inhibitory concentration (IC50) is under 10 nM. The “FXIa Fold Selectivity FXa” value in data set [2] is recorded as “G (“G” indicates 1-500)”. Further, in data set [3], the “FXIa Fold Selectivity Thrombin” value is recorded as “I (“I” indicates >1000)”. Moreover, the “FXIa Fold Selectivity Trypsin” value in data set [4] was “I (“I” indicates >1000)”. Moreover, the half-life in data set [5] was over 1.67 h.

With `CCC[C@@H](NC(=O)N1C(=O)[C@H](Cc2ccnc(N)c2)[C@H]1C(=O)O)c1ccc2c(c1)OC(F)(F)O2` [Example 89], in data set [1], the IC50 was under 10 nM. In addition, in data set [2], the “FXIa Fold Selectivity FXa” value is “G (“G” indicates 1-500)”. Besides, in data set [3], the “FXIa Fold Selectivity Thrombin” value is recorded as “I (“I” indicates >1000)”. The “FXIa Fold Selectivity Trypsin” value in data set [4] is on record as “G (“G” indicates 1-500)”. Further, in data set [5], the half-life was over 1.67 h.

For the compound `CNc1cc(C[C@H]2C(=O)N(C(=O)N[C@H](C)c3ccc4c(c3)OC(F)(F)O4)[C@@H]2C(=O)O)ccn1` [Example 98], the IC50 in data set [1] was under 10 nM. In addition, the “FXIa Fold Selectivity FXa” value in data set [2] is “G (“G” indicates 1-500)”. In addition, the “FXIa Fold Selectivity Thrombin” value in data set [3] was “I (“I” indicates >1000)”. The “FXIa Fold Selectivity Trypsin” value in data set [4] is reported as “I (“I” indicates >1000)”. For the same compound, the half-life in data set [5] was over 1.67 h.

Consider `CCOC(=O)[C@@H]1[C@@H](Cc2ccnc(NC)c2)C(=O)N1C(=O)N[C@H](C)c1ccc2c(c1)OC(F)(F)O2` [Example 99], for which the half-maximal inhibitory concentration (IC50) in data set [1] is under 10 nM. Also, the “FXIa Fold Selectivity FXa” value in data set [2] was “I (“I” indicates >1000)”. Also, the “FXIa Fold Selectivity Thrombin” value in data set [3] is “I (“I” indicates >1000)”. For the same compound, the “FXIa Fold Selectivity Trypsin” value in data set [4] is “G (“G” indicates 1-500)”. Moreover, in data set [5], the half-life is under 1.67 h.

Regarding `CCOC(=O)[C@@H]1[C@@H](Cc2ccnc(N)c2)C(=O)N1C(=O)N[C@H](C)c1ccc(OC(F)(F)F)cc1` [Example 103], the IC50 in data set [1] is under 10 nM. The “FXIa Fold Selectivity FXa” value in data set [2] is “I (“I” indicates >1000)”. Moreover, the “FXIa Fold Selectivity Thrombin” value in data set [3] is “H (“H” indicates 500-1000)”. The “FXIa Fold Selectivity Trypsin” value in data set [4] is given as “G (“G” indicates 1-500)”. Also, the half-life in data set [5] was under 1.67 h.
